These results are taken from patent publication US20220380371A1, “MLL1 INHIBITORS AND ANTI-CANCER AGENTS” (NOVARTIS AG, priority 2019, published 2022).

Experiment [1] concerns the target wild type MLL1 four-member complex (MLL1-4C) (Homo sapiens, UniProt Q03164). In words: MLL1 LC-MS Assay. Type of experiment: biochemical. Put shortly:
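Compound pre-incubated 20 min with MLL1-4C and SAM, then H3[1-21]-biotin (H3K4me0) substrate added; final 30 nM enzyme, 2.5 μM SAM, 10 μM peptide in Tris pH 8.0 with MgCl2, DTT, Tween 20, BSA. After 120 min at rt, TFA-quenched SAH quantified by LC-MS/MS with d4-SAH; IC50 from dose-response fit.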

Experiment [2] has as its target wild type MLL1 five-member complex (MLL1-5C) (Homo sapiens, UniProt Q03164). In words: MLL1 Flashplate Assay. Type of experiment: biochemical. The conditions noted are these: read-out: MLL1 flash plate. How it is done: MLL1 Flashplate Assay To assess the compound potency in MLL1 Flashplate assay, compounds were serially diluted 3-fold in DMSO to obtain a total of twelve concentrations. Then the test compounds at each concentration (250 nL of each) were transferred by Mosquito into Corning #3675 384-well plate. Solutions (15 μL) of 4.2 nM wild type MLL1 five-member complex (MLL1-5C) in the assay buffer (20 mM Tris-HCl, pH 8.0, 0.01% Tween 20, 1 mM DTT, 0.01% BSA) were added to the wells. A 10 μL solution of 2.5 μM of the peptide substrate H3K4me0 (histone H3[1-21]-Biotin) and 1.25 μM ^3H-SAM in the reaction buffer was then added to initiate each reaction. The final components in the reaction solution include 2.5 nM MLL1-5C, 0.5 μM ^3H-SAM, and 1 μM H3K4me0 with varying concentration of the compounds. A positive control consisted of 2.5 nM MLL1-5C, 0.5 μM ^3H-SAM, and 1 μM substrate in the absence of the test compound, and a negative control consisted of 0.5 μM ^3H-SAM, and 1 μM substrate only. Each reaction was incubated at rt for 90 min, then stopped by addition of 5 μL per of quench solution (0.5 mM SAM in assay buffer). 25 μL of each reaction solution was transferred to FlashPlate streptavidin 384-well microplate (PerkinElmer). After at least 1 h incubation at rt, the wells were washed three times with 0.1% Tween-20 in dH2O using the BioTek plate washer. The plates were then read in MicroBeta (PerkinElmer). The radioactive readouts were then normalized based on the values coming from the positive and negative controls to give percent enzyme activities. The data were then fit to a dose response equation using the program Helios to get the IC50 values of the test compounds.

In the next experiment the test system is H3K4me3 in MV4-11 cells. In words: MV4-11 H3K4me3 Cellular ELISA Assay. Type of experiment: cell-based. Particulars: Homo sapiens, MV4-11, 48 h. The method, boiled down:
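MV4-11 cells were treated for 48 h with 12-point 1:3 compound dilutions (from 10 mM stock), then histones were acid-extracted with 0.5M HCl and neutralized. H3K4me3 and total H3 were measured by HRP chemiluminescent ELISA, and inhibition versus DMSO after H3 normalization was curve-fitted for IC50.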
In general terms: In an ELISA, binding on a coated surface is turned into a signal by an enzyme label.

Another experiment relates to MV4-11 cells. In words: MV4-11 6-Day Cell Growth CTG (CellTiter-Glo) Assay. Type of experiment: cell-based. Particulars: Homo sapiens, MV4-11, 144 h, MV4-11 cell growth CellTiter-Glo, 6 days. The method, boiled down: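 MV4-11 AML cells (RPMI 1640, 10% FBS) seeded at 300 cells/well and exposed for 6 days at 37 °C to a 12-point, 1:3 compound series starting at 50 μM final. Viable cells read by CellTiter-Glo luminescence; percent inhibition versus DMSO-only wells fitted to dose-response curves for IC50.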

Where two headings read alike, the source gives them in different places.

On to `Nc1ncnc2c1ncn2Cc1c(N2CC[C@](N)(CCc3ccccn3)C2)ccc(F)c1C(F)(F)F` [Example 28], for which the IC50 in experiment [1] (read-out: LCMS) was greater than 100 nM; in experiment [2] it was greater than 100 nM; with H3K4me3 in MV4-11 cells it was greater than 3000 nM.
Consider `CN(C)Cc1c(F)cc(Cl)c(N2CC[C@](N)(C(=O)NC3CC3)C2)c1Cn1cnc2c(N)ncnc21` [Example 72, (R)-3-amino-1-(2-((6-amino-9H-purin-9-yl)methyl)-6-chloro-3-((dimethylamino)methyl)-4-fluorophenyl)-N-cyclopropylpyrrolidine-3-carboxamide], for which the IC50 in experiment [1] (read-out: LCMS) is greater than 100 nM; in experiment [2] it was greater than 100 nM; with H3K4me3 in MV4-11 cells, greater than 3000 nM.
For `Nc1ncnc2c1ncn2Cc1c(CN2CCOCC2)c(F)cc(Cl)c1N1CC[C@](N)(C(=O)NC2CC2)C1` [Example 75], the IC50 in experiment [1] (read-out: LCMS) was 50 to 100 nM; in experiment [2], greater than 100 nM; in the experiment with H3K4me3 in MV4-11 cells, greater than 3000 nM.
On to `CCc1cc(-c2cnccn2)cc(N2CC[C@](N)(C(=O)NC3CC3)C2)c1Cn1cnc2c(N)ncnc21` [Example 100, (R)-3-amino-1-(2-((6-amino-9H-purin-9-yl)methyl)-3-ethyl-5-(pyrazin-2-yl)phenyl)-N-cyclopropylpyrrolidine-3-carboxamide], for which the IC50 in experiment [1] (read-out: LCMS) was less than 50 nM; in the experiment with H3K4me3 in MV4-11 cells it was less than 1900 nM; in the experiment on MV4-11 cells, less than 2000 nM.
On the same counts, the results for `Nc1ncnc2c1ncn2Cc1c(N2CC[C@](N)(C(=O)NC3CC3)C2)cc(CN2CCOCC2)c(F)c1Cl` [Example 103, (R)-3-amino-1-(2-((6-amino-9H-purin-9-yl)methyl)-3-chloro-4-fluoro-5-(morpholinomethyl)phenyl)-N-cyclopropylpyrrolidine-3-carboxamide] are less than 50 nM, less than 1900 nM and less than 2000 nM.
On to `N#Cc1c(Cl)ccc(N2CC[C@](N)(C(=O)NC3CC3)C2)c1Cn1cnc2c(N)ncnc21` [Example 104], for which the IC50 in experiment [1] (read-out: LCMS) is less than 50 nM; in the experiment with H3K4me3 in MV4-11 cells, less than 1900 nM; with MV4-11 cells, less than 2000 nM.
In the case of `Nc1ncnc2c1ncn2Cc1c(N2CC[C@](N)(C(=O)NC3CC3)C2)cc(Cl)c(Cl)c1CN1CCOCC1` [Example 105], the results for the IC50 (in experiment [1] (read-out: LCMS); in the experiment with H3K4me3 in MV4-11 cells; with MV4-11 cells) were less than 50 nM, less than 1900 nM and less than 2000 nM, respectively.
For `CCc1cc(Cl)cc(N2CC[C@](N)(CO)C2)c1Cn1cnc2c(N)ncnc21` [Example 108], the results for the IC50 (in experiment [1] (read-out: LCMS); with H3K4me3 in MV4-11 cells; in the experiment on MV4-11 cells) were less than 50 nM, less than 1900 nM and less than 2000 nM, respectively.
On the same counts, the results for `COC[C@@]1(N)CCN(c2ccc3ccccc3c2Cn2cnc3c(N)ncnc32)C1` [Example 109] are 50 to 100 nM, less than 1900 nM and less than 2000 nM.
In the case of `Nc1ncnc2c1ncn2Cc1c(I)c(F)c2c(c1N1CC[C@](N)(C(=O)NC3CC3)C1)OCC2` [Example 111], the figures for the IC50 (in experiment [1] (read-out: LCMS); with H3K4me3 in MV4-11 cells; with MV4-11 cells) were less than 50 nM, 1900 to 3000 nM and 2000 to 3000 nM, respectively.
Consider `CCSc1c(Cl)ccc(N2CC[C@](N)(C(=O)NC3CC3)C2)c1Cn1cnc2c(N)ncnc21` [Example 113], for which the IC50 in experiment [1] (read-out: LCMS) is less than 50 nM; with H3K4me3 in MV4-11 cells, less than 1900 nM; in the experiment with MV4-11 cells, less than 2000 nM.
Turning to `Nc1ncnc2c1ncn2Cc1c(N2CC[C@](N)(C(=O)NCc3cccnc3O)C2)ccc(F)c1C(F)(F)F` [Example 120], the IC50 in experiment [1] (read-out: LCMS) was 50 to 100 nM; in the experiment with H3K4me3 in MV4-11 cells, less than 1900 nM; in the experiment with MV4-11 cells, less than 2000 nM.
Taken in the same sequence, the figures for `Nc1ncnc2c1ncn2Cc1c(N2CC[C@](N)(C(=O)NCCc3c[nH]cn3)C2)ccc(F)c1C(F)(F)F` [Example 121] were less than 50 nM, less than 1900 nM and less than 2000 nM.
Taken in the same sequence, the figures for `Nc1ncnc2c1ncn2Cc1c(N2CC[C@](N)(C(=O)NCC3CC3(F)F)C2)ccc(F)c1C(F)(F)F` (stereo partly drawn) [Example 122] were less than 50 nM, less than 1900 nM and less than 2000 nM.
Consider `C[C@@H](NC(=O)[C@@]1(N)CCN(c2ccc(F)c(C(F)(F)F)c2Cn2cnc3c(N)ncnc32)C1)C1CCOCC1` [Example 124], for which the IC50 is 50 to 100 nM in experiment [1] (read-out: LCMS), less than 1900 nM in the experiment on H3K4me3 in MV4-11 cells and less than 2000 nM with MV4-11 cells.
On the same counts, the results for `Nc1ncnc2c1ncn2Cc1c(N2CC[C@](N)(C(=O)NC3CC34CCOCC4)C2)ccc(F)c1C(F)(F)F` (stereo partly drawn) [Example 126] are 50 to 100 nM, less than 1900 nM and less than 2000 nM.
On the same counts, the results for `Nc1ncnc2c1ncn2Cc1c(N2CC[C@](N)(C(=O)NC3CCOC3)C2)ccc(F)c1C(F)(F)F` (stereo partly drawn) [Example 129] are less than 50 nM, less than 1900 nM and less than 2000 nM.
On the same counts, the results for `COC1CC2(C1)CC2NC(=O)[C@@]1(N)CCN(c2ccc(F)c(C(F)(F)F)c2Cn2cnc3c(N)ncnc32)C1` (stereo partly drawn) [Example 130] are less than 50 nM, less than 1900 nM and less than 2000 nM.
Consider `Nc1ncnc2c1ncn2Cc1c(N2CC[C@](N)(C(=O)N3CCn4nccc4C3)C2)ccc(F)c1C(F)(F)F` [Example 137], for which the IC50 in experiment [1] (read-out: LCMS) is 50 to 100 nM; in the experiment on H3K4me3 in MV4-11 cells it was less than 1900 nM; with MV4-11 cells it was 2000 to 3000 nM.
Taken in the same sequence, the figures for `CCCNC(=O)CCNC(=O)[C@@]1(N)CCN(c2ccc(F)c(C(F)(F)F)c2Cn2cnc3c(N)ncnc32)C1` [Example 139] were 50 to 100 nM, less than 1900 nM and less than 2000 nM.
As for `Nc1ncnc2c1ncn2Cc1c(N2CC[C@](N)(c3nnn[nH]3)C2)ccc(Cl)c1I` [Example 156], the IC50 is 50 to 100 nM in experiment [1] (read-out: MLL1 LCMS), less than 1900 nM with H3K4me3 in MV4-11 cells and less than 2000 nM with MV4-11 cells.
On the same counts, the results for `Nc1ncnc2c1ncn2Cc1c(N2CC[C@](N)(C(=O)NC3CC3)C2)ccc(F)c1C1CCCC1` [Example 158] are less than 50 nM, less than 1900 nM and less than 2000 nM.
Taken in the same sequence, the figures for `[2H]C([2H])([2H])C([2H])([2H])NC(=O)[C@@]1(N)CCN(c2cc(Cl)cc(Br)c2Cn2cnc3c(N)ncnc32)C1` [Example 159] were less than 50 nM, less than 1900 nM and 2000 to 3000 nM.
`Nc1ncnc2c1ncn2Cc1c(N2CCC(N)(C(=O)NC3CC3)C2)ccc(C(F)(F)F)c1Cl` (stereo not drawn) [Example 160]: the IC50 in experiment [1] (read-out: MLL1 LCMS) was 50 to 100 nM; in the experiment with H3K4me3 in MV4-11 cells it was less than 1900 nM; with MV4-11 cells, less than 2000 nM.
In the case of `CCc1cc(Cl)cc(N2CC[C@](N)(C(=O)NC(C)C)C2)c1Cn1cnc2c(N)ncnc21` [Example 161], the IC50 is less than 50 nM in experiment [1] (read-out: MLL1 LCMS), less than 1900 nM in the experiment with H3K4me3 in MV4-11 cells and less than 2000 nM in the experiment on MV4-11 cells.
Taken in the same sequence, the figures for `COCc1c(Cl)cc(Cl)c(N2CC[C@](N)(C(=O)NC3CC3)C2)c1Cn1cnc2c(N)ncnc21` [Example 162] were 50 to 100 nM, less than 1900 nM and 2000 to 3000 nM.
Taken in the same sequence, the figures for `C=Cc1c(Cl)ccc(N2CC[C@](N)(C(=O)NC3CC3)C2)c1Cn1cnc2c(N)ncnc21` [Example 163] were less than 50 nM, less than 1900 nM and less than 2000 nM.
Turning to `Nc1ncnc2c1ncn2Cc1c(Cl)cccc1N1CCC(N)(C(=O)NC2CC2)C1` (stereo not drawn) [Example 164], the IC50 is 50 to 100 nM in experiment [1] (read-out: MLL1 LCMS), less than 1900 nM with H3K4me3 in MV4-11 cells and less than 2000 nM with MV4-11 cells.
On the same counts, the results for `CCc1c(Cl)ccc(N2CC[C@](N)(C(=O)NC3CC3)C2)c1Cn1cnc2c(N)ncnc21` [Example 165] are 50 to 100 nM, less than 1900 nM and less than 2000 nM.
Taken in the same sequence, the figures for `COc1ccc(N2CC[C@](N)(C(=O)NC3CC3)C2)c(Cn2cnc3c(N)ncnc32)c1Br` [Example 168] were 50 to 100 nM, less than 1900 nM and less than 2000 nM.
As to `CCc1cccc(N2CC[C@](N)(C(=O)NC3CCCC3)C2)c1Cn1cnc2c(N)ncnc21` [Example 169], the IC50 is 50 to 100 nM in experiment [1] (read-out: MLL1 LCMS), less than 1900 nM with H3K4me3 in MV4-11 cells and less than 2000 nM in the experiment on MV4-11 cells.
